Values quoted from earlier work, collected in patent US8383125B2, “Antimicrobial protein” (Agriculture Victoria Services Pty, Limited, priority 2006, dated 2013).

What was measured:
Design in all cases: key: resistant (R); susceptible (S)
[1] = tested on: Pseudomonas aeruginosa (ATCC 27853); details: Reference isolate; cited from earlier work
[2] = tested on: P. aeruginosa strain FADDI 001; details: Clinical specimen; cited from earlier work
[3] = tested on: P. aeruginosa strain FADDI 002; details: Clinical specimen; cited from earlier work
[4] = tested on: P. aeruginosa strain FADDI 003; details: Clinical specimen; cited from earlier work
[5] = tested on: P. aeruginosa strain FADDI 004; details: Clinical specimen; cited from earlier work
[6] = tested on: Acinetobacter baumannii (ATCC 19606); details: Reference isolate; cited from earlier work
[7] = tested on: A. baumannii strain FADDI 005 (ATCC 19606 derivative); details: Laboratory prepared; obtained from Mueller-Hinton agar containing 10 mg/L colistin; cited from earlier work
[8] = tested on: A. baumannii strain FADDI 006; details: Clinical specimen; cited from earlier work
[9] = tested on: A. baumannii strain FADDI 007; details: Clinical specimen; cited from earlier work
[10] = tested on: Klebsiella pneumoniae (ATCC 13883); details: Reference isolate; cited from earlier work
[11] = tested on: K. pneumoniae strain FADDI 008; details: Clinical specimen; cited from earlier work
[12] = tested on: K. pneumoniae strain FADDI 009; details: Clinical specimen; cited from earlier work
[13] = tested on: K. pneumoniae strain FADDI 010; details: Clinical specimen; cited from earlier work

Measured: Colistin resistant (R) or susceptible (S)

colistin
S: [1] | [2] | [3] | [6] | [9] | [10] | [11]
R: [4] | [5] | [7] | [8] | [12] | [13]
